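Dose response: 5 concentrations. Exposure: 48 h. Format: 96-well plates. Endpoint: linear interpolation; highest concentration if not reached. At the GI50, growth is halved. Definition used: TGI = concentration required for complete inhibition of growth.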
Columns and labels:
Experiment in all cases: growth of human tumour cells (NCI), 48 h
MALME-3M melanoma = test system: MALME-3M melanoma
SF-539 CNS = test system: SF-539 CNS
SF-268 CNS = test system: SF-268 CNS
RPMI-8226 leukemia = test system: RPMI-8226 leukemia
A498 renal = test system: A498 renal
LOX IMVI melanoma = test system: LOX IMVI melanoma
SNB-19 CNS = test system: SNB-19 CNS
A549 NSCLC = test system: A549 NSCLC
HOP-92 NSCLC = test system: HOP-92 NSCLC
HL-60(TB) leukemia = test system: HL-60(TB) leukemia

For `Cc1ccc(C(C)C)cc1NC(=O)Nc1ccc([N+](=O)[O-])cc1`, the GI50 (MALME-3M melanoma) was 2.02 µM, the TGI (MALME-3M melanoma) was 6.48 µM and the GI50 (SF-539 CNS) was 2.57 µM. It also gave a TGI (SF-539 CNS) of 7.89 µM, a GI50 (SF-268 CNS) of 2.67 µM and a TGI (SF-268 CNS) of 12.1 µM. It also gave a GI50 (RPMI-8226 leukemia) of 1.57 µM, a TGI (RPMI-8226 leukemia) of 4.73 µM and a GI50 (A498 renal) of 1190 nM. It also gave a TGI (A498 renal) of 4.45 µM, a GI50 (LOX IMVI melanoma) of 1.99 µM and a TGI (LOX IMVI melanoma) of 4.82 µM. For the same molecule, the GI50 (SNB-19 CNS) was 2.99 µM, the TGI (SNB-19 CNS) was 12 µM and the GI50 (A549 NSCLC) was 2.63 µM. The TGI (A549 NSCLC) was 11.1 µM, the GI50 (HOP-92 NSCLC) was 2.42 µM and the TGI (HOP-92 NSCLC) was 8.89 µM.

Molecule `COc1cc2cc3c4c(cc(OC)c(OC)c4c2cc1OC)CCN3C(=O)CCC(=O)NCCCN(C)C` has a TGI (MALME-3M melanoma) of over 100 µM, a TGI (SF-539 CNS) of 59.3 µM and a TGI (SF-268 CNS) of over 100 µM. The TGI (RPMI-8226 leukemia) was over 100 µM, the TGI (LOX IMVI melanoma) was 27.3 µM and the TGI (SNB-19 CNS) was over 100 µM. It also gave a TGI (A549 NSCLC) of over 100 µM, a TGI (HL-60(TB) leukemia) of 56.9 µM and a TGI (HOP-92 NSCLC) of 64.6 µM.

In the case of `Oc1[nH]c2cc(Cl)ccc2c1/C=c1/ccc2c(c1)N=C(c1cc(F)cc(F)c1)N=2`, the GI50 (MALME-3M melanoma) is reported as 6.06 µM, the TGI (MALME-3M melanoma) is reported as 27.4 µM and the GI50 (SF-539 CNS) is reported as 2.04 µM. The TGI (SF-539 CNS) was 5.96 µM, the GI50 (SF-268 CNS) was 2.35 µM and the TGI (SF-268 CNS) was 11.7 µM. For the same molecule, the GI50 (RPMI-8226 leukemia) was 2.38 µM, the TGI (RPMI-8226 leukemia) was 6.28 µM and the GI50 (A498 renal) was 1240 nM. For the same molecule, the TGI (A498 renal) was 6.36 µM, the GI50 (LOX IMVI melanoma) was 2.22 µM and the TGI (LOX IMVI melanoma) was 15.2 µM. For the same molecule, the GI50 (SNB-19 CNS) was 6.22 µM, the TGI (SNB-19 CNS) was 26.2 µM and the GI50 (A549 NSCLC) was 1.64 µM. The TGI (A549 NSCLC) was 5.44 µM, the GI50 (HOP-92 NSCLC) was 0.741 µM and the TGI (HOP-92 NSCLC) was 8.16 µM.

`O=C(Cc1csc2nc(-c3ccc(Br)cc3)cn12)N/N=C/c1ccc(O)cc1` was tested, and the GI50 (SF-539 CNS) was 18.4 µM, the TGI (SF-539 CNS) was 46.5 µM and the GI50 (SF-268 CNS) was over 100 µM. The TGI (SF-268 CNS) was over 100 µM, the GI50 (RPMI-8226 leukemia) was 4.29 µM and the TGI (RPMI-8226 leukemia) was 40.2 µM. It also gave a GI50 (LOX IMVI melanoma) of 11.1 µM, a TGI (LOX IMVI melanoma) of 26.1 µM and a GI50 (SNB-19 CNS) of 57.5 µM. The TGI (SNB-19 CNS) was over 100 µM, the GI50 (A549 NSCLC) was 10.6 µM and the TGI (A549 NSCLC) was 33.7 µM. For the same molecule, the GI50 (HOP-92 NSCLC) was 18.9 µM and the TGI (HOP-92 NSCLC) was 68.9 µM.

`O=C1c2ccccc2C(=O)c2nc3ccc(Cl)cc3cc21` gave a TGI (MALME-3M melanoma) of over 100 µM, a TGI (SF-539 CNS) of over 100 µM and a TGI (SF-268 CNS) of over 100 µM. The TGI (RPMI-8226 leukemia) was over 100 µM, the TGI (LOX IMVI melanoma) was over 100 µM and the TGI (SNB-19 CNS) was over 100 µM. For the same molecule, the TGI (A549 NSCLC) was over 100 µM and the TGI (HOP-92 NSCLC) was over 100 µM.

For `C[C@]12CC[C@H](OC3CCCCO3)CC1=CC[C@@H]1C2CC[C@]2(C)/C(=N/O)CCC12` (some centres not stated), the TGI (MALME-3M melanoma) was 80.4 µM, the TGI (SF-539 CNS) was over 100 µM and the TGI (RPMI-8226 leukemia) was 40 µM. It also gave a TGI (A498 renal) of over 100 µM, a TGI (LOX IMVI melanoma) of 27.5 µM and a TGI (SNB-19 CNS) of 67.1 µM. For the same molecule, the TGI (A549 NSCLC) was 34.9 µM and the TGI (HOP-92 NSCLC) was 46 µM.

Molecule `CCCCCCCCCCCCOP(N)(=O)OCCCCCCCCCCCC` has a TGI (MALME-3M melanoma) of over 100 µM, a TGI (SF-539 CNS) of over 100 µM and a TGI (SF-268 CNS) of over 100 µM. It also gave a TGI (RPMI-8226 leukemia) of over 100 µM, a TGI (LOX IMVI melanoma) of over 100 µM and a TGI (SNB-19 CNS) of over 100 µM. The TGI (A549 NSCLC) was over 100 µM and the TGI (HL-60(TB) leukemia) was over 100 µM.

`C[C@@H]1C[C@]2(C[C@@H](C)C3[C@@H](CC4(C)[C@@H]5CCC6C(C)(C)OC(=O)C=C[C@]67C[C@@]5(CC[C@]34C)OO7)O2)OC1=O` (some centres not stated) was tested, and the TGI (MALME-3M melanoma) was over 100 µM, the TGI (SF-539 CNS) was over 100 µM and the TGI (RPMI-8226 leukemia) was over 100 µM. The TGI (LOX IMVI melanoma) was over 100 µM, the TGI (SNB-19 CNS) was over 100 µM and the TGI (A549 NSCLC) was over 100 µM. The TGI (HL-60(TB) leukemia) was over 100 µM.

Molecule `COc1ccc2nc3ccccc3c(NCCCCN(C)CCCl)c2c1` has a TGI (MALME-3M melanoma) of 1.06 µM, a TGI (SF-539 CNS) of 0.284 µM and a TGI (SF-268 CNS) of 0.756 µM. For the same molecule, the TGI (RPMI-8226 leukemia) was 0.544 µM, the TGI (LOX IMVI melanoma) was 0.539 µM and the TGI (SNB-19 CNS) was 0.707 µM. The TGI (A549 NSCLC) was 1.87 µM and the TGI (HL-60(TB) leukemia) was 0.0435 µM.

In the case of `CCOC(=O)[C@H]1Nc2ccccc2C2c3ccccc3CC21` (some centres not stated), the TGI (MALME-3M melanoma) is reported as over 100 µM, the TGI (SF-539 CNS) is reported as over 100 µM and the TGI (SF-268 CNS) is reported as over 100 µM. It also gave a TGI (RPMI-8226 leukemia) of over 100 µM, a TGI (A498 renal) of 61.8 µM and a TGI (LOX IMVI melanoma) of over 100 µM. For the same molecule, the TGI (SNB-19 CNS) was over 100 µM and the TGI (A549 NSCLC) was over 100 µM.

In the case of `Cc1cc(Cl)cc2c1NC(=O)C2=O` (tested in a mixture with another compound), the TGI (MALME-3M melanoma) is reported as over 100 µM, the TGI (SF-539 CNS) is reported as over 100 µM and the TGI (SF-268 CNS) is reported as over 100 µM. The TGI (A498 renal) was over 100 µM, the TGI (LOX IMVI melanoma) was 33.2 µM and the TGI (SNB-19 CNS) was over 100 µM. It also gave a TGI (A549 NSCLC) of over 100 µM and a TGI (HOP-92 NSCLC) of over 100 µM.

`CC1=C(C(=O)Nc2ccc(Cl)c(Cl)c2)C(c2ccccc2O)NC(=O)N1` (configuration not stated) showed a GI50 (SF-539 CNS) of 43.7 µM, a TGI (SF-539 CNS) of over 50 µM and a GI50 (SF-268 CNS) of 46.9 µM. It also gave a TGI (SF-268 CNS) of over 50 µM, a GI50 (RPMI-8226 leukemia) of 34.8 µM and a TGI (RPMI-8226 leukemia) of over 50 µM. For the same molecule, the GI50 (LOX IMVI melanoma) was 33.4 µM, the TGI (LOX IMVI melanoma) was over 50 µM and the GI50 (SNB-19 CNS) was over 50 µM. The TGI (SNB-19 CNS) was over 50 µM, the GI50 (A549 NSCLC) was over 50 µM and the TGI (A549 NSCLC) was over 50 µM. The GI50 (HL-60(TB) leukemia) was over 50 µM, the TGI (HL-60(TB) leukemia) was over 50 µM and the GI50 (HOP-92 NSCLC) was over 50 µM. The TGI (HOP-92 NSCLC) was over 50 µM.

`Cc1ccc(NC(=O)CC(=O)N2N=C(N(CCC#N)c3cccc(C)c3)CC2c2ccccc2)cc1` (configuration not stated) gave a TGI (MALME-3M melanoma) of over 100 µM, a TGI (SF-539 CNS) of over 100 µM and a TGI (SF-268 CNS) of over 100 µM. It also gave a TGI (RPMI-8226 leukemia) of over 100 µM, a TGI (SNB-19 CNS) of over 100 µM and a TGI (A549 NSCLC) of over 100 µM. It also gave a TGI (HL-60(TB) leukemia) of over 100 µM and a TGI (HOP-92 NSCLC) of over 100 µM.

`COc1cccc(C2NC(=S)NC(C)=C2C(=O)Nc2ccc(Cl)c(Cl)c2)c1` (configuration not stated) was tested, and the GI50 (SF-268 CNS) was 9.13 µM, the TGI (SF-268 CNS) was 18.7 µM and the GI50 (RPMI-8226 leukemia) was 21 µM. The TGI (RPMI-8226 leukemia) was over 50 µM, the GI50 (LOX IMVI melanoma) was 7.93 µM and the TGI (LOX IMVI melanoma) was 15.1 µM. For the same molecule, the GI50 (SNB-19 CNS) was 15.6 µM, the TGI (SNB-19 CNS) was over 50 µM and the GI50 (A549 NSCLC) was 17.9 µM. The TGI (A549 NSCLC) was over 50 µM, the GI50 (HL-60(TB) leukemia) was over 50 µM and the TGI (HL-60(TB) leukemia) was over 50 µM. For the same molecule, the GI50 (HOP-92 NSCLC) was 12.5 µM and the TGI (HOP-92 NSCLC) was 38.7 µM.

For `CCOC(=O)C1COc2cc(-c3cc(=O)c4ccccc4o3)ccc2O1` (configuration not stated), the TGI (MALME-3M melanoma) was over 100 µM, the TGI (SF-539 CNS) was 96.3 µM and the TGI (SF-268 CNS) was over 100 µM. It also gave a TGI (LOX IMVI melanoma) of over 100 µM, a TGI (SNB-19 CNS) of over 100 µM and a TGI (A549 NSCLC) of over 100 µM. It also gave a TGI (HOP-92 NSCLC) of 39.3 µM.

With `Cc1cc([N+](=O)[O-])c(C)c(Br)c1C` the TGI (MALME-3M melanoma) was over 100 µM, the TGI (SF-539 CNS) was over 100 µM and the TGI (SF-268 CNS) was over 100 µM. It also gave a TGI (RPMI-8226 leukemia) of over 100 µM, a TGI (A498 renal) of over 100 µM and a TGI (SNB-19 CNS) of over 100 µM. For the same molecule, the TGI (A549 NSCLC) was over 100 µM and the TGI (HOP-92 NSCLC) was over 100 µM.
